The supplement of paper PMC10307832

Assays:
Assay in all cases: relative viability (nuclei count vs DMSO), 5 days (fraction); higher = more cells survive
[1] = compound: CC1=CC(=NN1)NC2=CC(=NC(=N2)/C=C/C3=CC=CC=C3)N4CCN(CC4)C + COc1cc2c(Oc3ccc(NC(=O)C4(C(=O)Nc5ccc(F)cc5)CC4)cc3F)ccnc2cc1OCCCN1CCOCC1 [Foretinib] (partner 0.25 µM)
Outline: (§1)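 The day after seeding in 1536-well plates, lung cancer cell lines were treated by pin tool with a single drug, or with a fixed anchor-drug dose together with five library-drug doses (not always all listed) in √10 steps. After 5 days, a combined fix-and-stain solution (final 0.05% Triton X-100, 1% formaldehyde, 1 ug/ml Hoechst) was added. Nuclei counted on 4× images gave relative viability as treated counts over vehicle counts, reported as the median of duplicate plates.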

[2] = compound: CC1=CC(=NN1)NC2=CC(=NC(=N2)/C=C/C3=CC=CC=C3)N4CCN(CC4)C + NC(=O)Nc1cc(-c2cccc(F)c2)sc1C(=O)N[C@H]1CCCNC1 [AZD7762] (partner 0.2 µM)
Outline: as §1

[3] = compound: COC1=CC(c2cc3ccccc3[nH]2)=N/C1=C\c1[nH]c(C)cc1C [Obatoclax] + COc1cccc2cc(-c3nc([C@H]4CC[C@H](C(=O)O)CC4)n4ncnc(N)c34)[nH]c12 [OSI-027] (partner 0.5 µM)
Outline: as §1

[4] = compound: COC1=CC(c2cc3ccccc3[nH]2)=N/C1=C\c1[nH]c(C)cc1C [Obatoclax] + C[C@@H](Oc1cc(-c2cnn(C3CCNCC3)c2)cnc1N)c1c(Cl)ccc(F)c1Cl [Crizotinib] (partner 1 µM)
Outline: as §1

Cell Line | relative viability ([1]; first compound 0.08 µM) | relative viability ([1]; first compound 0.253 µM) | relative viability ([1]; first compound 0.8 µM) | relative viability ([1]; first compound 2.53 µM) | relative viability ([1]; first compound 8 µM) | relative viability ([2]; first compound 0.08 µM) | relative viability ([2]; first compound 0.253 µM) | relative viability ([2]; first compound 0.8 µM) | relative viability ([2]; first compound 2.53 µM) | relative viability ([2]; first compound 8 µM) | relative viability ([3]; first compound 0.01 µM) | relative viability ([3]; first compound 0.03162 µM) | relative viability ([3]; first compound 0.1 µM) | relative viability ([3]; first compound 0.3162 µM) | relative viability ([3]; first compound 1 µM) | relative viability ([4]; first compound 0.01 µM) | relative viability ([4]; first compound 0.03162 µM) | relative viability ([4]; first compound 0.1 µM) | relative viability ([4]; first compound 0.3162 µM) | relative viability ([4]; first compound 1 µM)
201T | 1.13 | 1.32 | 1.04 | 1.02 | 0.206 | 0.667 | 0.526 | 0.628 | 0.538 | 0.53 | 0.762 | 0.786 | 0.773 | 0.748 | 0.822 | 1.01 | 1.03 | 1.04 | 0.996 | 1.06
A549 | 1.03 | 0.914 | 0.616 | 0.0324 | 0.0167 |  |  |  |  |  |  |  |  |  |  | 0.75 | 0.799 | 0.752 | 0.664 | 0.0778
A-427 | 0.993 | 1.06 | 0.993 | 0.586 | 0.142 | 0.83 | 0.683 | 0.713 | 0.238 | 0.163 | 0.513 | 0.462 | 0.49 | 0.418 | 0.399 | 0.958 | 0.792 | 0.802 | 0.999 | 0.968
ABC-1 | 1.01 | 1.13 | 0.956 | 0.195 | 0.228 |  | 1.16 | 0.795 | 0.907 | 0.175 | 0.576 | 0.571 | 0.424 | 0.373 | 0.276 | 1.2 | 1.18 | 1.6 | 1.06 | 0.723
BEN | 0.639 | 0.675 | 0.715 | 0.377 | 0.182 | 0.734 | 0.726 | 0.667 | 0.508 | 0.283 | 0.28 | 0.297 |  | 0.283 | 0.32 | 0.897 | 0.841 | 0.853 | 0.75 | 0.817
CAL-12T | 1.09 | 1.17 | 0.908 | 0.293 | 0.162 | 0.626 | 0.655 | 0.647 | 0.319 | 0.152 | 0.62 | 0.609 | 0.829 | 0.138 | 0.128 | 0.511 | 0.797 | 0.492 | 0.382 | 0.105
COR-L23 | 0.967 | 1.01 | 0.904 | 0.211 | 0.107 |  |  |  |  |  | 0.715 | 0.853 | 0.786 | 0.405 | 0.177 | 0.632 | 0.696 | 0.635 | 0.212 | 0.174
COR-L 105 | 0.841 | 1.47 | 1.02 | 0.334 | 0.215 |  |  |  |  |  | 0.741 | 0.906 | 0.803 | 0.518 | 0.301 | 0.802 | 0.959 | 1 | 0.51 | 0.522
Calu-6 | 0.879 | 0.942 | 0.519 | 0.167 | 0.0898 |  |  |  |  |  |  |  |  |  |  | 0.778 | 0.769 | 0.736 | 0.739 | 0.137
ChaGo-K-1 | 0.952 | 0.915 | 0.79 | 0.353 | 0.186 | 0.823 | 0.935 | 0.824 | 0.439 | 0.241 | 0.694 | 0.549 | 0.522 | 0.512 | 0.63 | 1.26 | 0.996 |  | 1.15 | 1.02
EBC-1 | 0.107 | 0.115 | 0.103 | 0.106 | 0.0799 |  |  |  |  |  |  |  |  |  |  | 0.176 | 0.198 | 0.197 | 0.19 | 0.168
EKVX | 0.761 | 0.786 | 1.14 | 0.504 | 0.213 | 0.649 | 0.667 | 0.753 | 0.413 | 0.122 | 0.708 | 0.74 | 0.797 | 0.561 | 0.667 | 0.867 | 0.979 | 0.979 | 0.914 | 0.643
EMC-BAC-2 | 0.957 | 1.04 | 0.936 | 0.534 | 0.234 | 1.11 | 1.22 | 1.1 | 0.654 | 0.354 | 0.413 | 0.382 | 0.297 | 0.332 | 0.299 | 0.777 | 0.725 | 0.738 | 0.745 | 0.634
EPLC-272H | 0.639 | 0.708 | 0.4 | 0.171 | 0.0935 | 0.17 | 0.209 | 0.196 | 0.116 | 0.0909 | 0.277 | 0.279 | 0.333 | 0.247 | 0.203 | 0.873 | 0.682 | 0.803 | 0.941 | 0.946
H3255 | 0.799 | 1.1 | 0.822 | 0.756 | 0.631 | 0.866 | 0.935 | 0.955 | 0.782 | 0.374 | 0.584 | 0.591 | 0.751 | 0.617 | 0.666 | 0.773 | 0.87 | 0.828 | 0.624 | 0.697
HARA | 0.932 | 0.909 | 0.794 | 0.098 | 0.0593 | 0.386 | 0.351 | 0.412 | 0.193 | 0.154 | 0.456 | 0.555 | 0.444 | 0.438 | 0.168 | 1.01 | 1.03 | 1.1 | 1.05 | 0.382
HCC-15 | 1.06 | 1.11 | 0.839 | 0.196 | 0.0908 | 1.1 | 1.46 | 1.25 | 0.875 | 0.34 | 0.745 | 0.641 | 0.446 | 0.662 | 0.447 | 0.768 | 0.821 | 0.741 | 0.776 | 0.689
HCC-44 |  |  |  |  |  | 1.02 | 1.03 | 1.01 | 1.01 | 0.844 | 0.577 | 0.422 | 0.219 | 0.441 | 0.333 | 0.786 | 0.684 | 0.8 | 0.721 | 0.228
